Laboratory results from ChEMBL document CHEMBL1147463, “Synthesis and anticancer activity of side chain analogs of the crambescidin alkaloids” (2004).

Experiments:
Assay type in all cases: functional
[1] = Murine tumor cell selectivity as zone unit differential between ([…]) murine cell line and (CFU) normal bone marrow in disk diffusion soft agar colony formation assay at 75 ug/disk.
[2] = Murine tumor cell selectivity was measured as zone unit differential between (C38) colon adenocarcinoma and (CFU) normal bone marrow in disk diffusion soft agar colony formation assay at a concentration of 75 ug/disk
[3] = Murine tumor cell selectivity as zone unit differential between (C38) colon adenocarcinoma and ([…]) murine cell line in disk diffusion soft agar colony formation assay at 75 ug/disk.
[4] = Human tumor selectivity was measured as zone unit differential between (H125) lung small cell carcinoma and (CEM) lymphocytic leukemia in disk diffusion soft agar colony formation assay at a concentration of 75 ug/disk
[5] = Human tumor selectivity was measured as zone unit differential between (H125) lung small cell carcinoma and (CEM) lymphocytic leukemia in disk diffusion soft agar colony formation assay at a concentration of 5 ug/disk
[6] = Human tumor selectivity was measured as zone unit differential between (H116) colon tumor and (CEM) lymphocytic leukemia in disk diffusion soft agar colony formation assay at a concentration of 5 ug/disk
[7] = Murine tumor cell selectivity was measured as zone unit differential between ([…]) murine cell line and (CFU) normal bone marrow in disk diffusion soft agar colony formation assay at a concentration of 5 ug/disk
[8] = Murine tumor cell selectivity was measured as zone unit differential between (C38) colon adenocarcinoma and (CFU) normal bone marrow in disk diffusion soft agar colony formation assay at a concentration of 5 ug/disk
[9] = Murine tumor cell selectivity was measured as zone unit differential between (C38) colon adenocarcinoma and ([…]) murine cell line in disk diffusion soft agar colony formation assay at a concentration of 5 ug/disk
[10] = Human tumor selectivity was measured as zone unit differential between (H116) colon tumor and (CEM) lymphocytic leukemia in disk diffusion soft agar colony formation assay at a concentration of 19 ug/disk
[11] = Human tumor selectivity was measured as zone unit differential between (H125) lung small cell carcinoma and (CEM) lymphocytic leukemia in disk diffusion soft agar colony formation assay at a concentration of 19 ug/disk
[12] = Murine tumor cell selectivity was measured as zone unit differential between ([…]) murine cell line and (CFU) normal bone marrow in disk diffusion soft agar colony formation assay at a concentration of 19 ug/disk
[13] = Murine tumor cell selectivity was measured as zone unit differential between (C38) colon adenocarcinoma and (CFU) normal bone marrow in disk diffusion soft agar colony formation assay at a concentration of 19 ug/disk
[14] = Murine tumor cell selectivity was measured as zone unit differential between (C38) colon adenocarcinoma and ([…]) murine cell line in disk diffusion soft agar colony formation assay at a concentration of 19 ug/disk

Compound	Selectivity [1]	Selectivity [2]	Selectivity [3]	Selectivity [4]	further results
CC[C@H]1C=CCC[C@@]2(C[C@@H]3CC[C@@H]4[C@H](C(=O)OCCCCCCCCCCCCCCCCCC(=O)N(CCCN)C[C@@H](O)CCN)[C@]5(CCC[C@@H](C)O5)NC(=[N+]34)N2)O1.Cl.Cl.[Cl-]	100	150	50	150	
CC[C@H]1C=CCC[C@@]2(C[C@@H]3CC[C@@H]4[C@H](C(=O)OCCC(C)C)[C@]5(CCC[C@@H](C)O5)NC(=[N+]34)N2)O1.[Cl-]					Selectivity [5]: 150; Selectivity [6]: 50; Selectivity [7]: -50; Selectivity [8]: 0; Selectivity [9]: 50
CC[C@H]1C=CCC[C@@]2(C[C@@H]3CC[C@@H]4[C@@H](C(=O)OC/C=C/c5ccccc5)[C@]5(CCC[C@@H](C)O5)NC(=[N+]34)N2)O1.[Cl-]					Selectivity [5]: 200; Selectivity [6]: 100; Selectivity [7]: 50; Selectivity [8]: 100; Selectivity [9]: 50
CC[C@H]1C=CCC[C@@]2(C[C@@H]3CC[C@@H]4[C@H](C(=O)OCCCCCCCCCCCC(=O)O)[C@]5(CCC[C@@H](C)O5)NC(=[N+]34)N2)O1.[Cl-] [GUANIDINO ACID]	50	250	200	200	
CCOC(=O)[C@H]1[C@H]2CC[C@H]3C[C@@]4(CCC=C[C@H](CC)O4)NC(=[N+]32)N[C@@]12CCC[C@@H](C)O2.[Cl-]					Selectivity [5]: 100; Selectivity [6]: 0; Selectivity [7]: 200; Selectivity [8]: 150; Selectivity [9]: -50
CC[C@H]1C=CCC[C@@]2(C[C@@H]3CC[C@@H]4[C@H](C(=O)OCCCCCCCC(=O)O)[C@]5(CCC[C@@H](C)O5)NC(=[N+]34)N2)O1.[Cl-] [GUANIDINO ACID]	100	200	100	-50	
CC[C@H]1C=CCC[C@@]2(C[C@@H]3CC[C@@H]4[C@H](C(=O)OCc5ccccc5)[C@]5(CCC[C@@H](C)O5)NC(=[N+]34)N2)O1.[Cl-]					Selectivity [5]: 150; Selectivity [6]: 50; Selectivity [7]: 50; Selectivity [8]: 100; Selectivity [9]: 50
CC[C@H]1C=CCC[C@@]2(C[C@@H]3CC[C@H]4[C@H](C(=O)OCCCCCCCCCCCCCCCC(=O)N(CCCN)C[C@@H](O)CCN)[C@@]5(CCC[C@@H](C)O5)NC(=[N+]34)N2)O1.Cl.Cl.[Cl-]	50	50	0	50	
CC[C@H]1C=CCC[C@@]2(C[C@@H]3CC[C@@H]4[C@H](C(=O)OCCCCCCCCCC(=O)N(CCCN)C[C@@H](O)CCN)[C@]5(CCC[C@@H](C)O5)NC(=[N+]34)N2)O1.Cl.Cl.[Cl-]	300	100	0	-50	
CC[C@H]1C=CCC[C@@]2(C[C@@H]3CC[C@@H]4[C@H](C(=O)OCCCCCC(=O)N(CCCN)C[C@@H](O)CCN)[C@]5(CCC[C@@H](C)O5)NC(=[N+]34)N2)O1.Cl.Cl.[Cl-]	300	0	-300	-50	
CC[C@H]1C=CCC[C@@]2(C[C@@H]3CC[C@@H]4[C@H](C(=O)OCCCCCCCCCCCCCCCC(=O)N(CCCN)C[C@@H](O)CCN)[C@]5(CCC[C@@H](C)O5)NC(=N2)N34)O1.Cl.Cl.Cl [CRAMBESCIDIN 800 TRIHYDROCHLORIDE]	150	-50	-200	50	
CC[C@H]1C=CCC[C@@]2(C[C@@H]3CC[C@H]4[C@@H](C(=O)OCCCCCCCCCCCCCCCC(=O)O)[C@@]5(CCC[C@@H](C)O5)NC(=[N+]34)N2)O1.[Cl-]	-50	50	100	150	
CC[C@H]1C=CCC[C@@]2(C[C@@H]3CC[C@@H]4[C@H](C(=O)OCCCCCCCCCC(=O)O)[C@]5(CCC[C@@H](C)O5)NC(=[N+]34)N2)O1.[Cl-] [GUANIDINO ACID]	-200	100	300	50	
CC[C@H]1C=CCC[C@@]2(C[C@@H]3CC[C@@H]4C[C@]5(CCC[C@@H](C)O5)NC(=[N+]43)N2)O1.[Cl-]					Selectivity [10]: 0; Selectivity [11]: 150; Selectivity [12]: 350; Selectivity [13]: 0; Selectivity [14]: -350
CC[C@H]1C=CCC[C@@]2(C[C@@H]3CC[C@@H]4[C@H](C(=O)OCCCCCCCCCCCC(=O)N(CCCN)C[C@@H](O)CCN)[C@]5(CCC[C@@H](C)O5)NC(=[N+]34)N2)O1.Cl.Cl.[Cl-]	50	100	50	100	
CC[C@H]1C=CCC[C@@]2(C[C@@H]3CC[C@@H]4[C@@H](C(=O)[O-])[C@]5(CCC[C@@H](C)O5)NC(=[N+]34)N2)O1.Cl	300	200	-100	50	
CC[C@H]1C=CCC[C@@]2(C[C@@H]3CC[C@@H]4[C@H](C(=O)OCCCCCCCCCCCCCCC(=O)[O-])[C@]5(CCC[C@@H](C)O5)NC(=[N+]34)N2)O1.Cl [GUANIDINO ACID]	-100	100	200	100	
CC[C@H]1C=CCC[C@@]2(C[C@@H]3CC[C@@H]4[C@H](C(=O)OCCCCCCCC(=O)N(CCCN)C[C@@H](O)CCN)[C@]5(CCC[C@@H](C)O5)NC(=[N+]34)N2)O1.Cl.Cl.[Cl-]	300	100	-200	-50	
CC[C@H]1C=CCC[C@@]2(C[C@@H]3CC[C@@H]4[C@H](C(=O)OCCCCCCCCCCCCCCCCCC(=O)O)[C@]5(CCC[C@@H](C)O5)NC(=[N+]34)N2)O1.[Cl-] [GUANIDINO ACID]	0	100	100	150	
CC[C@H]1C=CCC[C@@]2(C[C@@H]3CC[C@@H]4[C@H](C(=O)O)[C@]5(CCC[C@@H](C)O5)NC(=[N+]34)N2)O1.[Cl-]					Selectivity [10]: 50; Selectivity [11]: 100; Selectivity [12]: 200; Selectivity [13]: -50; Selectivity [14]: -250
CC[C@H]1C=CCC[C@@]2(C[C@@H]3CC[C@@H]4[C@H](C(=O)OCC5CC5)[C@]5(CCC[C@@H](C)O5)NC(=[N+]34)N2)O1.[Cl-]					Selectivity [5]: 150; Selectivity [6]: 100; Selectivity [7]: 100; Selectivity [8]: 300; Selectivity [9]: 200
CC[C@H]1C=CCC[C@@]2(C[C@@H]3CC[C@@H]4[C@H](C(=O)OCCCCCCCCCCCCCCCC(=O)O)[C@]5(CCC[C@@H](C)O5)NC(=[N+]34)N2)O1.[Cl-] [CRAMBESCIDIN 657]	50	200	150	100	
CC[C@H]1C=CCC[C@@]2(C[C@@H]3CC[C@@H]4[C@H](C(=O)OCCCCCCCCCCCCCCC(=O)N(CCCN)C[C@@H](O)CCN)[C@]5(CCC[C@@H](C)O5)NC(=[N+]34)N2)O1.Cl.Cl.[Cl-]	100	150	50	400	
CC[C@H]1C=CCC[C@@]2(C[C@@H]3CC[C@@H]4[C@H](C(=O)OC/C=C/c5ccccc5)[C@]5(CCC[C@@H](C)O5)NC(=[N+]34)N2)O1.[Cl-]					Selectivity [10]: 200; Selectivity [11]: 200; Selectivity [12]: -50; Selectivity [13]: 100; Selectivity [14]: 150
CC[C@H]1C=CCC[C@@]2(C[C@@H]3CC[C@@H]4[C@H](C(=O)OCCCCCC(=O)[O-])[C@]5(CCC[C@@H](C)O5)NC(=[N+]34)N2)O1.Cl [GUANIDINO ACID]	200	0	-200	150	
CC[C@H]1C=CCC[C@@]2(C[C@@H]3CC[C@H]4[C@@H](C(=O)OCCCCCCCCCCCCCCCC(=O)N(CCCN)C[C@@H](O)CCN)[C@@]5(CCC[C@@H](C)O5)NC(=[N+]34)N2)O1.Cl.Cl.[Cl-]	50	0	-50	100	
